Experimental data from patent EP4810508A1, “ARABINOSE DERIVATIVE COMPOUND, AND COMPOSITION COMPRISING SAME FOR PREVENTING OR TREATING DEGENERATIVE BRAIN DISEASES” (Digmbio. Inc., priority 2023, dated 2025).

Tested on: HRE/Luc/HEK293 cells
Experiment: HRE (Hypoxia Response Element) luciferase assay
Format: cell-based, human
Settings: for fold induction at 10 µM / fold induction at 100 µM: Homo sapiens, HEK293, 18 h, Table 2 (Examples 75-109, 114); for fold induction at 10 µM: read-out: HRE-inceasing 10uM; for fold induction at 100 µM: read-out: HRE-inceasing 100uM; for HRE expression: low concentration of 1 µM
Protocol: • (a) HRE assay: Confirmation of increased in HRE expression levels by the test substance relative to the vehicle in HRE/Luc/HEK293 cells • * Less than a twofold increase at 100 µM, • ** More than a twofold increase at 100 µM, • *** More than a twofold increase at 10 µM, • **** More than a twofold increase at 1 µM, • Not performed.
It has been reported that in the brains of AD patients, blood supply is mostly insufficient, resulting in oxygen levels being up to 50% lower than those of normal individuals, leading to increased oxidative stress (ROS) and neuroinflammation. It has also been studied that when the HIF-1α (hypoxia inducible factor-1) factor binds to the HRE (hypoxia response element), it increases VEGF (vascular endothelial growth factor), which promotes the formation of new blood vessels, thereby increasing oxygen levels in the brain and helping to inhibit nerve cell damage.
A reporter gene containing luciferase, capable of verifying the level of HRE expression, was inserted into HEK-293 human embryonic kidney cells, and HRE/Luc/HEK293 cells were constructed by inserting a plasmid (HRE/Luc) with luciferase attached downstream of the HRE promoter that binds to HIF-1α using lipofectamine (Invitrogen).
To perform HRE luciferase analysis, HRE/Luc/HEK293 cells were seeded in 96-well culture plates at a cell density of 4 x 10^4 per well in minimal essential medium (MEM) containing 10% fetal bovine serum. After one day, the cell medium was removed and replaced with medium mixed with various concentrations of example compounds. Six hours after compound pretreatment, HRE/Luc/HEK293 cells were cultured under hypoxic conditions (O2 0.1%) for 18 hours. Subsequently, the cells were washed with phosphate buffer, lysed with lysis buffer, and then the luciferase reagent (Promega) for luciferase analysis was added. Afterward, changes in HRE expression levels associated with HIF-1 signaling were evaluated by measuring luminescence using an Infinite200 (Tecan).

Row | SMILES | fold induction at 10 µM | fold induction at 100 µM | HRE expression
1 | COc1ccc2cc(-c3ccc(O[C@H]4OC[C@H](O)[C@H](O)[C@H]4O)cc3)oc2c1 [Example 81, (2R,3R,4S,5S)-2-(4-(6-methoxybenzofuran-2-yl)phenoxy)tetrahydro-2H-pyran-3,4,5-triol] | 2.7 | 3.6 | 
2 | COc1ccc2c(ccn2-c2ccc(O[C@H]3OC[C@H](O)[C@H](O)[C@H]3O)cc2)c1 [Example 82, (2R,3R,4S,5S)-2-(4-(5-methoxy-1H-indol-1-yl)phenoxy)tetrahydro-2H-pyran-3,4,5-triol] | 1.4 | 2.3 | 
3 | COc1ccc2c(ccn2-c2ccc(O[C@@H]3OC[C@H](O)[C@H](O)[C@H]3O)cc2)c1 [Example 83, (2S,3R,4S,5S)-2-(4-(5-methoxy-1H-indol-1-yl)phenoxy)tetrahydro-2H-pyran-3,4,5-triol] | 2.2 | 3.3 | 
4 | COc1ccc(-c2ccc(O[C@H]3OC[C@H](O)[C@H](O)[C@H]3O)cc2)cc1 [Example 84, (2R,3R,4S,5S)-2-((4'-methoxy-[1,1'-biphenyl]-4-yl)oxy)tetrahydro-2H-pyran-3,4,5-triol] | 2.5 | 3.5 | 
5 | COc1ccc(-c2ccc(O[C@H]3OC[C@H](O)[C@H](O)[C@H]3O)cc2)cn1 [Example 85, (2R,3R,4S,5S)-2-(4-(6-methoxypyridin-3-yl)phenoxy)tetrahydro-2H-pyran-3,4,5-triol] | 1.3 | 2.6 | 
6 | CC(C)c1ccc(-c2ccc(O[C@H]3OC[C@H](O)[C@H](O)[C@H]3O)cc2)cc1 [Example 86, (2R,3R,4S,5S)-2-((4'-isopropyl-[1,1'-biphenyl]-4-yl)oxy) tetrahydro-2 H-pyran-3,4,5-triol] | 1.9 | 3.2 | 
7 | CC(C)c1ccc(-c2ccc(O[C@@H]3OC[C@H](O)[C@H](O)[C@H]3O)cc2)cc1 [Example 87, (2S,3R,4S,5S)-2-((4'-isopropyl-[1,1'-biphenyl]-4-yl)oxy)tetrahydro-2H-pyran-3,4,5-triol] | 2.4 | 3.1 | 
8 | CC(C)c1ccc2nc(-c3ccc(O[C@H]4OC[C@H](O)[C@H](O)[C@H]4O)cc3)oc2c1 [Example 88, (2R,3R,4S,5S)-2-(4-(6-isopropylbenzo[d]oxazol-2-yl)phenoxy)tetrahydro-2H-pyran-3,4,5-triol] | 1.7 | 3.1 | 
9 | CC(C)c1ccc2nc(-c3ccc(O[C@@H]4OC[C@H](O)[C@H](O)[C@H]4O)cc3)oc2c1 [Example 89, (2S,3R,4S,5S)-2-(4-(6-isopropylbenzo[d]oxazol-2-yl)phenoxy)tetrahydro-2H-pyran-3,4,5-triol] | 2.8 | < 1 | 
10 | Cc1ccc2c(ccn2-c2ccc(O[C@H]3OC[C@H](O)[C@H](O)[C@H]3O)cc2)c1 [Example 90, (2R,3R,4S,5S)-2-(4-(5-methyl-1H-indol-1-yl)phenoxy)tetrahydro-2H-pyran-3,4,5-triol] | 1.7 | 2.4 | 
11 | COc1ccc2oc(-c3ccc(O[C@H]4OC[C@H](O)[C@H](O)[C@H]4O)cc3)nc2c1 [Example 91, (2R,3R,4S,5S)-2-(4-(5-methoxybenzo[d]oxazol-2-yl)phenoxy)tetrahydro-2H-pyran-3,4,5-triol] | 2.4 | 2.8 | 
12 | COc1ccc2oc(-c3ccc(O[C@@H]4OC[C@H](O)[C@H](O)[C@H]4O)cc3)nc2c1 [Example 92, (2S,3R,4S,5S)-2-(4-(5-methoxybenzo[d]oxazol-2-yl)phenoxy)tetrahydro-2H-pyran-3,4,5-triol] | 3 | 1.6 | more than threefold
13 | COc1ccc2oc(-c3ccc(O[C@H]4OC[C@@H](O)[C@H](O)[C@H]4O)cc3)nc2c1 [Example 93, (2R,3R,4S,5R)-2-(4-(5-methoxybenzo[d]oxazol-2-yl)phenoxy)tetrahydro-2H-pyran-3,4,5-triol] | 2.8 | 2.3 | 
14 | COc1ccc2oc(-c3ccc(O[C@@H]4OC[C@@H](O)[C@H](O)[C@H]4O)cc3)nc2c1 [Example 94, (2S,3R,4S,5R)-2-(4-(5-methoxybenzo[d]oxazol-2-yl)phenoxy)tetrahydro-2H-pyran-3,4,5-triol] | 3 | 2.2 | more than threefold
15 | CCc1ccc2c(-c3ccc(O[C@H]4OC[C@H](O)[C@H](O)[C@H]4O)cc3)coc2c1 [Example 95, (2R,3R,4S,5S)-2-(4-(6-ethylbenzofuran-3-yl)phenoxy) tetrahydro-2H-pyra-3,4,5-triol] | 2.6 | 3.1 | 
16 | CCc1ccc2c(-c3ccc(O[C@@H]4OC[C@H](O)[C@H](O)[C@H]4O)cc3)coc2c1 [Example 96, (2S,3R,4S,5S)-2-(4-(6-ethylbenzofuran-3-yl)phenoxy)tetrahydro-2H-pyran-3,4,5-triol] | 2.6 | 2.9 | 
17 | CC(C)c1cccc2nc(-c3cccc(O[C@H]4OC[C@H](O)[C@H](O)[C@H]4O)c3)oc12 [Example 97, (2R,3R,4S,5S)-2-(3-(7-isopropylbenzo[d]oxazol-2-yl)phenoxy)tetrahydro-2H-pyran-3,4,5-triol] | 1.1 | 1.2 | 
18 | CC(C)c1cccc2nc(-c3cccc(O[C@@H]4OC[C@H](O)[C@H](O)[C@H]4O)c3)oc12 [Example 98, (2S,3R,4S,5S)-2-(3-(7-isopropylbenzo[d]oxazol-2-yl)phenoxy)tetrahydro-2H-pyran-3,4,5-triol] | 1.1 | 1.4 | 
19 | Cc1ccc2oc(-c3ccc(O[C@H]4OC[C@H](O)[C@H](O)[C@H]4O)c(Cl)c3)nc2c1 [Example 99, (2R,3R,4S,5S)-2-(2-chloro-4-(5-methylbenzo [d]oxazol-2-yl)phenoxy)tetrahydro-2H-pyran-3,4,5-triol] | 2.8 | 3.6 | 
20 | Cc1ccc2oc(-c3ccc(O[C@@H]4OC[C@H](O)[C@H](O)[C@H]4O)c(Cl)c3)nc2c1 [Example 100, (2S,3R,4S,5S)-2-(2-chloro-4-(5-methylbenzo[d]oxazol-2-yl)phenoxy) tetrahydro-2H-pyran-3,4,5-triol] | 2.7 | 2.4 | 
21 | CC(C)c1ccc(Oc2ccc(O[C@H]3OC[C@@H](O)[C@H](O)[C@H]3O)c(F)c2)cc1 [Example 101, (2R,3R,4S,5R)-2-(2-fluoro-4-(4-isopropylphenoxy)phenoxy)tetrahydro-2H-pyran-3,4,5-triol] | 3.7 | 2.5 | 
22 | COc1ccc2oc(-c3ccc(O[C@@H]4OC[C@H](O)[C@H](O)[C@H]4O)c(Cl)c3)nc2c1 [Example 102, (2S,3R,4S,5S)-2-(2-chloro-4-(5-methoxybenzo[d]oxazol-2-yl)phenoxy)tetrahydro-2H-pyran-3,4,5-triol] | 3.1 | 1.8 | more than threefold
23 | COc1ccc2oc(-c3ccc(O[C@H]4OC[C@H](O)[C@H](O)[C@H]4O)c(Cl)c3)nc2c1 [Example 103, (2R,3R,4S,5S)-2-(2-chloro-4-(5-methoxybenzo[d]oxazol-2-yl)phenoxy)tetrahydro-2H-pyran-3,4,5-triol] | 2.6 | 2.9 | 
24 | Cc1ccc2oc(-c3ccc(O[C@@H]4OC[C@H](O)[C@H](O)[C@H]4O)c(F)c3)nc2c1 [Example 104, (2S,3R,4S,5S)-2-(2-fluoro-4-(5-methylbenzo[d]oxazol-2-yl)phenoxy)tetrahydro-2H-pyran-3,4,5-triol] | 3.6 | 2 | more than threefold
25 | Cc1ccc2oc(-c3ccc(O[C@H]4OC[C@H](O)[C@H](O)[C@H]4O)c(F)c3)nc2c1 [Example 105, (2R,3R,4S,5S)-2-(2-fluoro-4-(5-methylbenzo[d]oxazol-2-yl)phenoxy)tetrahydro-2H-pyran 3,4,5-triol] | 2.5 | 3.7 | 
26 | COc1ccc2oc(-c3cccc(O[C@@H]4OC[C@H](O)[C@H](O)[C@H]4O)c3)nc2c1 [Example 106, (2S,3R,4S,5S)-2-(3-(5-methoxybenzo[d]oxazol-2-yl)phenoxy)tetrahydro-2H-pyran-3,4,5-triol] | 3.4 | 1.7 | more than threefold
27 | COc1ccc2oc(-c3cccc(O[C@H]4OC[C@H](O)[C@H](O)[C@H]4O)c3)nc2c1 [Example 107, (2R,3R,4S,5S)-2-(3-(5-methoxybenzo[d]oxazol-2-yl)phenoxy)tetrahydro-2H-pyran-3,4,5-triol] | 3.1 | 4.2 | more than threefold
